Key:
specific T cell clones = experiment: Recognition assay for peptide presentation by DC, statements on T cell clones overall; format: cell-based, human; conditions: MEP-transfected DC, Lactacystin 25 μM and 50 μM
Description: (§1) T cell clones were co-incubated with DC in flat 96-well plate for 24 hours. DC were plated immediately after their transfection or pulsing in 6 separated plates, in the presence of GM CSF and IL-4. 1×10^5 T cells were added to 1×10^5 pulsed or transfected DC. In the longitudinal study, T cell clones were added to the transfected/pulsed DC at the following time points: T0=immediately, +12=after 12 hours, 24, 36, 48 and 72 hours. Supernatants were collected after overnight incubation. Interferon gamma release assay was performed to evaluate T cell stimulation using the ELISA method, results are presented in pg/ml.
(§2) Lactacystin was added to DC at concentrations of 25 μM and 50 μM, 4 hours post transfection. DC were incubated with lactacystin for 70 minutes and then washed twice.
(§3) Responding T cells were added after washing the lactacystin and co-incubated. Supernatents were collected after 20 hours.
Efficiency of epitope presentation and stimulation of specific T cell clone proliferation were evaluated by comparing the specific T cell clones response to the DC transfected with the multiepitope, to DC that were pulsed with specific peptides or DC transfected with full length melanoma associated antigens (gp100 and MART-1), using the recognition assay. […]

[1] = system: T cell clone CK3H6 (A2 restricted gp100 epitope 209-217); experiment: Recognition assay for peptide presentation by DC (IFN-γ release ELISA), T cell clone CK3H6; format: cell-based, human
Description: (§4) Dendritic cells were isolated from cytopheresis MNCs of melanoma patients with the HLA haplotypes HIA-A*0201 and HLA-DRβ1*0401. DC were generated from plastic adherent PBMCs cultured in RPMI with 10% human AB-serum, L-glutamine, penicillin-streptomycin, supplemented with GM-CSF 1000 IU/ml and IL-4 1000 IU/ml. By day 6, immature DC were harvested for electroporation.
(§5) 2.5-3×10^6 DC were re-suspended in 100 μl nucleofector solution and added to 5 μg of DNA plasmid in 2-mm electrode gap cuvettes. Transfected DC were immediately plated with CM containing GM/IL4 or let mature using TNFα 100 ng/ml and PGE2 1000 ng/ml. GFP-transfected DCs were collected 16-24 hours later for FACS analysis.
(§6) DC were pulsed with 1 μg/ml of the relevant peptides at 1×10^6 cells/ml. Stimulants were added after 1 hour incubation without washing the peptide.
CK3H6 which recognizes the A2 restricted gp100 epitope 209-217.
as §1, §2, §3
(§7) For recognition assay of DC epitope presentation, 1×10^5 cells from different T cell clones, that were grown from PBMCs of patients, and were restricted to particular melanoma antigen peptides, were co-incubated with 1×10^5 pulsed or transfected DC, in the presence of GM-CSF and IL-4. T cell clones were added to the transfected/pulsed DC at the following time points: T=0 immediately, T=12, 24, 36, 48, 72 hours. Supernatant was collected after overnight incubation and was subjected to interferon gamma release assay, in order to evaluate the specific T cell activity towards the particular peptide presented by the DC cells.
(§8) The results shown in the following tables represent the amount of Interferon-γ (pg/ml) secreted to the culture medium as an index for T cell stimulation.

[2] = system: DC with CM (no T cell clone); experiment: Recognition assay, CM in place of a T cell clone (IFN-γ background of DC); format: cell-based, human; conditions: transfected or peptide-pulsed DC, CM instead of T cell clone
Description: as §4, §5, §6, §1, §7, §8

[3] = system: TIL 1383 (A2 restricted tyrosinase epitope 369-377); experiment: Recognition assay for peptide presentation by DC (IFN-γ release ELISA), TIL 1383; format: cell-based, human; conditions: control plate; peptide-pulsed DC; TIL 1383
Description: as §4, §5, §6
TIL 1383 which recognizes the A2 restricted tyrosinase epitope 369-377.
as §1, §2, §3, §7, §8

[4] = system: T cell clone BR-B8 (DR4-restricted gp100 epitope 44-59); experiment: Recognition assay for peptide presentation by DC (IFN-γ release ELISA), clone BR-B8; format: cell-based, human; conditions: control plate; peptide-pulsed DC; clone BR-B8
Description: as §4, §5
pcDNA-MEP and pcDNA-gp100 were co-transfected to detect Class II antigen presentation as an internal control.
BR-B8 which recognizes the DR4-restricted gp100 epitope 44-59.
as §1, §2, §3, §7, §8

[5] = system: TIL 1940 (A2 restricted MART-1 epitope 27-35); experiment: Recognition assay for peptide presentation by DC (IFN-γ release ELISA), TIL 1940; format: cell-based, human; conditions: TIL 1940
Description: as §4, §5, §6
TIL 1940 which recognizes the A2 restricted MART-1 epitope 27-35.
as §1, §2, §3, §7, §8

[6] = system: T cell clone RB-154 (gp100 154-162 peptide); experiment: Recognition assay for peptide presentation by DC (IFN-γ release ELISA), clone RB-154; format: cell-based, human; conditions: control plate; peptide-pulsed DC; clone RB-154
Description: as §4, §5, §6, §1, §7, §8

HHD mice = conditions: HLA-A2.1-restricted; cited from earlier work
MHC = conditions: cited from earlier work
[7] = system: CTLs in blood lymphocytes of breast carcinoma patients; conditions: personal communications; cited from earlier work
[8] = control plate, peptide-pulsed DC, T cell clone CK3H6
[9] = control plate, peptide-pulsed DC

MHC, sequence (P61769 21-119): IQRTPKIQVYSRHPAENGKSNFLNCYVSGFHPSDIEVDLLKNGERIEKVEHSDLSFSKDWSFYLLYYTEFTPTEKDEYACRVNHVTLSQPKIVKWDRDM

CC(=O)N[C@@H](CSC(=O)[C@]1([C@@H](O)C(C)C)NC(=O)[C@H](C)[C@@H]1O)C(=O)O [Lactacystin]
effect of proteasomal inhibition on epitope expression (specific T cell clones): decreased the epitope expression of MEP-Mel to background level

MART-1 27-35: peptide 27-35 of MART-1, SEQ ID NO: 18
Interferon-γ secreted to the culture medium [1, 8]: 1 pg/mL | Interferon-γ secreted to the culture medium ([1]; transfected or peptide-pulsed DC, Donor 1, T = 12 hours, CK3H6): 11 pg/mL | Interferon-γ secreted to the culture medium ([1]; transfected or peptide-pulsed DC, Donor 1, T = 24 hours, CK3H6): 6 pg/mL | Interferon-γ secreted to the culture medium ([1]; transfected or peptide-pulsed DC, Donor 1, T = 36 hours, CK3H6): 10 pg/mL | Interferon-γ secreted to the culture medium ([1]; transfected or peptide-pulsed DC, Donor 1, T = 48 hours, CK3H6): 0 pg/mL | Interferon-γ secreted to the culture medium ([1]; transfected or peptide-pulsed DC, Donor 1, T = 72 hours, CK3H6): 0 pg/mL | Interferon-γ secreted to the culture medium ([1]; transfected or peptide-pulsed DC, Donor 2, T = 12 hours, CK3H6): 10 pg/mL | Interferon-γ secreted to the culture medium ([1]; transfected or peptide-pulsed DC, Donor 2, T = 24 hours, CK3H6): 10 pg/mL | Interferon-γ secreted to the culture medium ([1]; transfected or peptide-pulsed DC, Donor 2, T = 36 hours, CK3H6): 8 pg/mL | Interferon-γ secreted to the culture medium ([1]; transfected or peptide-pulsed DC, Donor 2, T = 48 hours, CK3H6): 0 pg/mL | Interferon-γ secreted to the culture medium ([1]; transfected or peptide-pulsed DC, Donor 2, T = 72 hours, CK3H6): 0 pg/mL | Interferon-γ secreted to the culture medium ([2]; Donor 1, T = 12 hours): 10 pg/mL | Interferon-γ secreted to the culture medium ([2]; Donor 1, T = 48 hours): 0 pg/mL | Interferon-γ secreted to the culture medium ([2]; Donor 1, T = 72 hours): 0 pg/mL | Interferon-γ secreted to the culture medium ([2]; Donor 2, T = 12 hours): 9 pg/mL | Interferon-γ secreted to the culture medium ([2]; Donor 2, T = 24 hours): 7 pg/mL | Interferon-γ secreted to the culture medium ([2]; Donor 2, T = 36 hours): 8 pg/mL | Interferon-γ secreted to the culture medium ([2]; Donor 2, T = 48 hours): 0 pg/mL | Interferon-γ secreted to the culture medium ([2]; Donor 2, T = 72 hours): 0 pg/mL | Interferon-γ secreted to the culture medium [3]: 1 pg/mL | Interferon-γ secreted to the culture medium [4]: 1 pg/mL | Interferon-γ secreted to the culture medium [5, 9]: >2000 pg/mL | Interferon-γ secreted to the culture medium ([5]; transfected or peptide-pulsed DC, Donor 1, T = 12 hours): 9 pg/mL | Interferon-γ secreted to the culture medium ([5]; transfected or peptide-pulsed DC, Donor 1, T = 24 hours): 435 pg/mL | Interferon-γ secreted to the culture medium ([5]; transfected or peptide-pulsed DC, Donor 1, T = 36 hours): 99 pg/mL | Interferon-γ secreted to the culture medium ([5]; transfected or peptide-pulsed DC, Donor 1, T = 48 hours): 0 pg/mL | Interferon-γ secreted to the culture medium ([5]; transfected or peptide-pulsed DC, Donor 1, T = 72 hours): 0 pg/mL | Interferon-γ secreted to the culture medium ([5]; transfected or peptide-pulsed DC, Donor 2, T = 12 hours): 448 pg/mL | Interferon-γ secreted to the culture medium ([5]; transfected or peptide-pulsed DC, Donor 2, T = 24 hours): 254 pg/mL | Interferon-γ secreted to the culture medium ([5]; transfected or peptide-pulsed DC, Donor 2, T = 36 hours): 49 pg/mL | Interferon-γ secreted to the culture medium ([5]; transfected or peptide-pulsed DC, Donor 2, T = 48 hours): 0 pg/mL | Interferon-γ secreted to the culture medium ([5]; transfected or peptide-pulsed DC, Donor 2, T = 72 hours): 0 pg/mL | Interferon-γ secreted to the culture medium [6]: 1 pg/mL

gp 100 154-162: peptide 154-162 of gp100, SEQ ID NO: 24
Interferon-γ secreted to the culture medium [1, 8]: 7 pg/mL | Interferon-γ secreted to the culture medium [3]: 6 pg/mL | Interferon-γ secreted to the culture medium [4]: 1 pg/mL | Interferon-γ secreted to the culture medium [5, 9]: 6 pg/mL | Interferon-γ secreted to the culture medium [6]: >2000 pg/mL

MUC1/D6: peptide D6 (LLLTVLTVV) of MUC1, SEQ ID NO: 25 (listed as Homo sapiens)
CTL induced upon vaccination, lysis of human carcinoma lines (HHD mice): effectively lysed the human carcinoma lines | MHC-binding affinity (MHC): high | activation of CTLs in blood lymphocytes, patients responding [7]: 3/4

— patent publication US20060246095A1, “Multiepitope polypeptides for cancer immunotherapy” (HADASIT MEDICAL RESEARCH SERVICES & DEVELOPMENT LTD., priority 2003, published 2006)
